{"source": "PubChem BioAssay AID1963972", "about": "(Molecular Pharmacology Branch, DTP, NCI, 2024);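 also: spheroids exposed to compounds for seven days before reading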", "tested_on": "945468-187-T-J2-PDC spheroids viability", "assay": "Anticancer human tumor 945468-187-T-J2-PDC patient-derived rectal carcinoma cell line growth inhibition [PI3K]", "details": "spheroids with HUVEC and MSC; for IC50: curve of first compound; for viability, T/C: stronger effect = lower value", "procedure,_shortened": "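Tumor cells grown as multi-cell spheroids with HUVEC endothelial cells and MSC fibroblast-like stroma were treated with targeted agents combined with inavolisib, alpelisib, duvelisib or copanlisib. Doses fell in half-log steps from near clinical Cmax, else from 10 microM. Viability was measured.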", "data": [{"smiles": "CC(Cn1ccc(-c2ccc(C#N)c(Cl)c2)n1)NC(=O)c1cc(C(C)O)[nH]n1", "note": "(configuration not stated) + Cc1nc(NC(=O)N2CCCC2C(N)=O)sc1-c1ccnc(C(C)(C)C(F)(F)F)c1", "values": [{"measurement": "IC50", "setting": "second compound 0.0316 µM", "result": "> 10", "unit": "µM"}, {"measurement": "IC50", "setting": "second compound 0.1 µM", "result": "> 10", "unit": "µM"}, {"measurement": "IC50", "setting": "second compound 0.316 µM", "result": "> 10", "unit": "µM"}, {"measurement": "IC50", "setting": "second compound 1 µM", "result": "> 10", "unit": "µM"}, {"measurement": "IC50", "setting": "second compound 3.16 µM", "result": "> 10", "unit": "µM"}, {"measurement": "IC50", "setting": "second compound 10 µM", "result": "> 10", "unit": "µM"}, {"measurement": "viability, T/C", "setting": "second compound 0.0316 µM, first compound 0.0316 µM", "result": 118, "unit": "%"}, {"measurement": "viability, T/C", "setting": "second compound 0.0316 µM, first compound 0.1 µM", "result": 94.1, "unit": "%"}, {"measurement": "viability, T/C", "setting": "second compound 0.0316 µM, first compound 0.316 µM", "result": 115, "unit": "%"}, {"measurement": "viability, T/C", "setting": "second compound 0.0316 µM, first compound 1 µM", "result": 96.3, "unit": "%"}, {"measurement": "viability, T/C", "setting": "second compound 0.0316 µM, first compound 3.16 µM", "result": 90.7, "unit": "%"}, {"measurement": "viability, T/C", "setting": "second compound 0.0316 µM, first compound 10 µM", "result": 82.5, "unit": "%"}, {"measurement": "viability, T/C", "setting": "second compound 0.1 µM, first compound 0.0316 µM", "result": 90.7, "unit": "%"}, {"measurement": "viability, T/C", "setting": "second compound 0.1 µM, first compound 0.1 µM", "result": 81, "unit": "%"}, {"measurement": "viability, T/C", "setting": "second compound 0.1 µM, first compound 0.316 µM", "result": 90.8, "unit": "%"}, {"measurement": "viability, T/C", "setting": "second compound 0.1 µM, first compound 1 µM", "result": 100, "unit": "%"}, {"measurement": "viability, T/C", "setting": "second compound 0.1 µM, first compound 3.16 µM", "result": 104, "unit": "%"}, {"measurement": "viability, T/C", "setting": "second compound 0.1 µM, first compound 10 µM", "result": 82.1, "unit": "%"}, {"measurement": "viability, T/C", "setting": "second compound 0.316 µM, first compound 0.0316 µM", "result": 100, "unit": "%"}, {"measurement": "viability, T/C", "setting": "second compound 0.316 µM, first compound 0.1 µM", "result": 95.6, "unit": "%"}, {"measurement": "viability, T/C", "setting": "second compound 0.316 µM, first compound 0.316 µM", "result": 109, "unit": "%"}, {"measurement": "viability, T/C", "setting": "second compound 0.316 µM, first compound 1 µM", "result": 80, "unit": "%"}, {"measurement": "viability, T/C", "setting": "second compound 0.316 µM, first compound 3.16 µM", "result": 89.6, "unit": "%"}, {"measurement": "viability, T/C", "setting": "second compound 0.316 µM, first compound 10 µM", "result": 83.4, "unit": "%"}, {"measurement": "viability, T/C", "setting": "second compound 1 µM, first compound 0.0316 µM", "result": 95.4, "unit": "%"}, {"measurement": "viability, T/C", "setting": "second compound 1 µM, first compound 0.1 µM", "result": 84.9, "unit": "%"}, {"measurement": "viability, T/C", "setting": "second compound 1 µM, first compound 0.316 µM", "result": 79.4, "unit": "%"}, {"measurement": "viability, T/C", "setting": "second compound 1 µM, first compound 1 µM", "result": 101, "unit": "%"}, {"measurement": "viability, T/C", "setting": "second compound 1 µM, first compound 3.16 µM", "result": 79.3, "unit": "%"}, {"measurement": "viability, T/C", "setting": "second compound 1 µM, first compound 10 µM", "result": 84.7, "unit": "%"}, {"measurement": "viability, T/C", "setting": "second compound 3.16 µM, first compound 0.0316 µM", "result": 81, "unit": "%"}, {"measurement": "viability, T/C", "setting": "second compound 3.16 µM, first compound 0.1 µM", "result": 84.2, "unit": "%"}, {"measurement": "viability, T/C", "setting": "second compound 3.16 µM, first compound 0.316 µM", "result": 78.4, "unit": "%"}, {"measurement": "viability, T/C", "setting": "second compound 3.16 µM, first compound 1 µM", "result": 83.5, "unit": "%"}, {"measurement": "viability, T/C", "setting": "second compound 3.16 µM, first compound 3.16 µM", "result": 71.7, "unit": "%"}, {"measurement": "viability, T/C", "setting": "second compound 3.16 µM, first compound 10 µM", "result": 74.9, "unit": "%"}, {"measurement": "viability, T/C", "setting": "second compound 10 µM, first compound 0.0316 µM", "result": 76.9, "unit": "%"}, {"measurement": "viability, T/C", "setting": "second compound 10 µM, first compound 0.1 µM", "result": 76.3, "unit": "%"}, {"measurement": "viability, T/C", "setting": "second compound 10 µM, first compound 0.316 µM", "result": 73.3, "unit": "%"}, {"measurement": "viability, T/C", "setting": "second compound 10 µM, first compound 1 µM", "result": 68, "unit": "%"}, {"measurement": "viability, T/C", "setting": "second compound 10 µM, first compound 3.16 µM", "result": 69, "unit": "%"}, {"measurement": "viability, T/C", "setting": "second compound 10 µM, first compound 10 µM", "result": 61.5, "unit": "%"}]}]}
